Measurements: patent publication US8580857B2 (priority 2001, dated 2013)
Marks after values point to notes of the source that are not given here.

Tests used:
in vivo = conditions: mouse
clinical = type: in vivo, human
Source text: This method was then verified prospectively in three additional patients (see Example IV).
However, the CL was lower in females compared to males.

[1] = tested on: human prostate PC3 xenograft tumors; experiment: Antitumor activity in subcutaneous human prostate PC3 xenograft (tumor size over time); type: in vivo, immunodeficient mice
Experimental: The dose of paclitaxel was 15 mg/kg and was given twice weekly for three weeks. […] Example 1 further expounds on FIG. 1.
The relevant tumor model used was human prostate PC3 xenograft implanted subcutaneously in immunodeficient mice. […] The dose of paclitaxel was 15 mg/kg and was given twice weekly for three weeks.

[2] = tested on: human prostate PC3 xenograft tumors; experiment: Non-apoptotic and apoptotic cell counts in histologic sections of residual PC3 tumors; type: in vivo, immunodeficient mice; conditions: mean ± SD
Experimental: Because a post-treatment residual tumor consisted of apoptotic and non-apoptotic cells, the effects of different treatments on the fractions of non-apoptotic (and therefore not committed to death) and apoptotic (dead or committed) cells were evaluated. Briefly, residual tumors were removed from animals after termination of treatment, and histologic tumor sections were prepared. Tumor sections were examined microscopically under 400× magnification. For each tumor, at least 4 sections were evaluated. Apoptotic cells were identified by their characteristic morphologies, i.e., presence of apoptotic bodies, condensed nuclei and fragmented nuclei.

[3] = Phase I trial, toxicity of low dose suramin with paclitaxel and carboplatin; type: in vivo, human
Source text: Fifteen patients, with metastases to pleura, pericardium, adrenals, lymph nodes, liver, bone, and/or brain, were enrolled in the phase I trial. This group includes 4 stage IIIb and 11 stage IV patients. […] All patients were evaluable for pharmacokinetics and toxicity. […] Accordingly, it was not necessary to administer replacement steroid therapy to patients who received low dose suramin. This is contrary to the case where replacement steroid therapy was routinely given to patients who received high dose suramin (Dorr and Von Hoff).

cell cycle = conditions: constant concentrations of above 50 μM maintained for at least one or two days; cited from earlier work
[4] = Literature, cited from earlier work
[5] = Population-based pharmacokinetic (PBPK) analysis of low dose suramin, NONMEM
Source text: The first step is to define the appropriate error model for the pharmacokinetic parameters of interest. […] Only the covariates whose elimination results in significant deterioration in model performance are included in the final model (referred to as Population Model).
The PBPK for a one-compartment model depicting plasma concentrations as a function of clearance (CL) and volume of distribution (V) is as follows: • where Cij is the predicted plasma concentration at a particular time time i for a patient j.
Error functions were used to describe the random deviations between model-predicted and observed data for individual pharmacokinetic parameters. Because the objective was to identify the dose, which can be calculated based on CL and V, the analysis focused on these two parameters. […] CLj=CL^typ*(1+ηCL) Eq. 2 Vj=V^typ*(1+ηV) Eq. 3 where ηCL and ηV are random values normally distributed around a mean of zero with a variance of ω^2.
Multiple plasma concentration-time data points were used in PBPK analysis. These time points were 18, 24, 48 and 72 hours after the first treatment, 72 hours and immediately prior to next treatment, and 48 and 72 hours after second and subsequent treatments. The relationship between observed plasma concentrations and PBPK-predicted values (residual variability) is depicted by Equation 4. Yij=Cij*(1+ε1ij) Eq. 4 where Yij and Cij are the observed and predicted concentrations of the j^th individual at the i^th sampling time. ε1ij is the residual errors with a mean of zero and a variance of σ^2. The above equations used an error function in the form of (1+error), which represents the proportional error model where the coefficient of variation is constant and independent of the size of the fixed effect parameter. […] Model Building: Identification of Significant Covariates
The contribution of ten covariates to the inter-individual variability in CL and V was studied. These covariates were age, gender, weight, ideal body weight, height, body surface area (BSA), creatinine concentration, creatinine clearance (CrCL), and serum albumin concentration. Linear regression analysis was used to examine the relationships between covariates and pharmacokinetic parameters in individual patients.
To determine whether a covariate should be incorporated into the model, the log likelihood ratio test was used and the chi-square χ^2 values were calculated by taking the difference in the objective function values of the models, obtained with or without adding the candidate covariate.
CL^typ=(θ1*BSA+θ2*CrCL+θ3)*(1−θ4) Eq. 7 V^typ=θ5*BSA^2+θ6 Eq. 8 […]
To obtain estimates for k^typ, the k values for individual patients were calculated by substituting their corresponding BSA values into Equations 13 and 14.

[6] = tested on: acidic and basic fibroblast growth factors (aFGF and bFGF); conditions: tumor cells, aFGF and bFGF induced resistance; cited from earlier work
[7] = Prospective verification of the PBPK-based dosing method, plasma concentrations; type: in vivo, human; conditions: for concentration at 48 h: human, plasma, intravenous
Experimental: Three additional non-small cell lung cancer patients were treated using the dose calculated by the PBPK-based method.

[8] = paclitaxel alone 15 mg/kg twice weekly for three weeks
[9] = high dose suramin regimen 200 mg/kg then 5 x 130 mg/kg over three weeks, combination: plus paclitaxel 15 mg/kg
[10] = low dose suramin regimen 10 mg/kg twice weekly for three weeks, combination: plus paclitaxel 15 mg/kg
[11] = high dose suramin >2,000 mg per m^2
[12] = Population Model, first 12 patients
[13] = Patient 1, cycle 1, BSA 1.45, dose 263 mg
[14] = Patient 1, cycles 3 to 6, dose 151-156 mg
[15] = Patient 2, cycle 1, BSA 1.67, dose 210 mg
[16] = Patient 2, cycles 2 to 6, dose 227-257 mg
[17] = Patient 3, cycle 1, BSA 1.83, dose 230 mg

SMILES: CC(=O)O[C@H]1C(=O)[C@@]2(C)[C@H]([C@H](OC(=O)c3ccccc3)[C@]3(O)C[C@H](OC(=O)[C@H](O)[C@@H](NC(=O)c4ccccc4)c4ccccc4)C(C)=C1C3(C)C)[C@]1(OC(C)=O)CO[C@@H]1C[C@@H]2O [Paclitaxel, paclitaxel]
- concentration at 5 min (in vivo): ~7000 ng/mL
- concentration at 5 h (in vivo): 200 ng/mL
- concentration at 6 h (in vivo): < 100 ng/mL
- areas-under-plasma concentration-time curves attained in the first 48 hours after drug administration (clinical; human, in vivo): > 92%
- antitumor effect (tumor growth) ([1]; paclitaxel alone 15 mg/kg twice weekly for three weeks, p<0.05 vs control): suppressed tumor growth
- Number of apoptotic cells in a 400x field [2, 8]: 30 ± 17
- Number of non-apoptotic cells in a 400x field [2, 8]: 14 ± 10

SMILES: N.N.O=C([O-])C1(C(=O)[O-])CCC1.[Pt+2] [carboplatin]
- areas-under-plasma concentration-time curves attained in the first 48 hours after drug administration (clinical; first six patients): > 99%

SMILES: Cc1ccc(C(=O)Nc2ccc(S(=O)(=O)O)c3cc(S(=O)(=O)O)cc(S(=O)(=O)O)c23)cc1NC(=O)c1cccc(NC(=O)Nc2cccc(C(=O)Nc3cc(C(=O)Nc4ccc(S(=O)(=O)O)c5cc(S(=O)(=O)O)cc(S(=O)(=O)O)c45)ccc3C)c2)c1 [suramin]
- dose-limiting toxicity ([3]; low dose suramin with paclitaxel 200 mg/m^2 and carboplatin AUC 6 every three weeks, fifteen patients): No dose-limiting toxicity
- adrenal insufficiency ([3]; patients receiving the low dose suramin treatment): no adrenal insufficiency
- effect on cell cycle (cell cycle): induce cell cycle arrest
- half-life (clinical; both sexes, human, in vivo, Alpha half-life): 4.4 h
- half-life (clinical; both sexes, human, in vivo, Beta half-life): 264 h
- maximum inter-individual variability of clearance (CL) (clinical; both, human, in vivo): 182%
- inter-individual variability of clearance (CL) (clinical; female, human, in vivo): 2%
- half-life (clinical; female, human, in vivo, Alpha half-life): 4.6 ± 2 h
- half-life (clinical; female, human, in vivo, Beta half-life): 336 h
- area under the terminal phase as share of the total area-under-curve (clinical; human, in vivo): ~90%
- concentration at 48 h (clinical; human, in vivo): > 10 µM
- maximum inter-subject variability in the steady state volume of distribution (Vss) (clinical; human, in vivo): 153%
- inter-individual variability of clearance (CL) (clinical; male, human, in vivo): 13%
- half-life (clinical; male, human, in vivo, Alpha half-life): 4.3 ± 0.6 h
- half-life (clinical; male, human, in vivo, Beta half-life): 240 h
- antitumor effect (tumor growth) ([1]; high dose suramin regimen: loading dose 200 mg/kg, then 5 doses of 130 mg/kg over three weeks, combination: plus paclitaxel 15 mg/kg twice weekly for three weeks): slower tumor growth
- tumor size, % of the initial tumor size ([1]; low dose suramin regimen: 10 mg/kg twice weekly for three weeks, combination: plus paclitaxel 15 mg/kg twice weekly for three weeks): about 800%
- Number of apoptotic cells in a 400x field [2, 9]: 22 ± 9
- Number of non-apoptotic cells in a 400x field [2, 9]: 19 ± 9
- Number of apoptotic cells in a 400x field [2, 10]: 21 ± 16
- Number of non-apoptotic cells in a 400x field [2, 10]: 62 ± 44
- Alpha half-life [4, 11]: 5.5 ± 1.7 h
- Beta half-life [4, 11]: 98.4 ± 52.8 h
- Gamma half-life [4, 11]: 1870 ± 1100 h
- Total body clearance [4, 11]: 0.01 ± 0.004 l/hr/m^2
- Cumulative AUC ([4]; high dose suramin, total dose >2,000 mg per m^2 per 3-week interval, calculated as 200 μg/ml x 3 weeks from the reference): 101* mg-hr/ml
- k^typ (elimination rate constant), Estimate ([5]; Female): 0.0022 h⁻¹
- k^typ (elimination rate constant), Estimate ([5]; Male): 0.0026 h⁻¹
- θ1 (effect of BSA on CL^typ), Estimate [5, 12]: 26.2 mL/h * m^2
- θ5 (effect of BSA^2 on V^typ), Estimate [5, 12]: 5.13 L/m^4
- concentrations of suramin that overcome FGF-mediated resistance to chemotherapy [6]: less than 50 μM
- Concentration, Post-paclitaxel [7, 13]: 33.95 µM
- Concentration, Pre-dose [7, 13]: 0.00 µM
- Concentration, Post-paclitaxel [7, 14]: 21.5 to 26.3 µM
- Concentration, Pre-dose [7, 14]: 1.87 to 3.19 µM
- Concentration, Post-paclitaxel [7, 15]: 40.39 µM
- Concentration, Pre-dose [7, 15]: 0.00 µM
- Concentration, Post-paclitaxel [7, 16]: 26.7 to 28.5 µM
- Concentration, Pre-dose [7, 16]: 2.65 to 3.81 µM
- Concentration, Post-paclitaxel [7, 17]: 36.02 µM
- Concentration, Pre-dose [7, 17]: 0.00 µM
- maximum concentrations after administration of paclitaxel ([7]; all 13 treatments in three patients, PBPK-calculated dose, two-thirds / one-third split): below 50 μM
- concentration at 48 h ([7]; Patient 1, cycle 1, BSA 1.45, dose 263 mg, read-out: Concentration, 48 hours): 13.9 µM
- concentration at 48 h ([7]; Patient 1, cycles 3 to 6, dose 151-156 mg, read-out: Concentration, 48 hours): 10.2 to 11.5 µM
- concentration at 48 h ([7]; Patient 2, cycle 1, BSA 1.67, dose 210 mg, read-out: Concentration, 48 hours): 15.5 µM
- concentration at 48 h ([7]; Patient 2, cycles 2 to 6, dose 227-257 mg, read-out: Concentration, 48 hours): 12.9 to 15.6 µM
- concentration at 48 h ([7]; Patient 3, cycle 1, BSA 1.83, dose 230 mg, read-out: Concentration, 48 hours): 19.4 µM
- concentration at 48 h ([7]; all 13 treatments in three patients, PBPK-calculated dose, two-thirds / one-third split, read-out: 48-hour plasma concentrations): > 10 µM
